The test system of data set [1] is anesthetized rats (evoked responses of anterior tibial muscle). Description: In vivo neuromuscular block and cardiovascular side effects, anesthetized rat (Example 8, Table 3). The following applies: for RI (recovery index): spontaneous recovery, 25-75% neuromuscular response; for Onset: time to 80-85% neuromuscular block. From the text: The neuromuscular blocking activity and other effects (e.g. cardiovascular side effects) of selected agents were investigated on several different experimental animals. Justification for this approach lies in the commonly known fact that the pharmacodynamic and pharmacokinetic properties of these agents are markedly variable from species to species. Therefore, the most important aspects of the projected therapeutic utility of these agents, e.g., neuromuscular blocking potency, onset and duration of action, and side effects cannot be ascertained in “in vitro” preparations or by using only one species of animals.
a) Adult, male albino rats were anesthetized with pentobarbital injected intraperitoneally. The trachea was cannulated for artificial respiration via a small animal respirator. The carotid artery was cannulated for recording blood pressure via a transducer and heart rate by a cardiotachograph on a polygraph. One external jugular vein was cannulated for i.v. drug administration. Neuromuscular function was monitored by electromyography, recording evoked responses from the anterior tibial muscle as a result of supramaximal nerve stimuli consisting of single or “train-of-four” rectangular pulses of 0.1-0.2 msec duration every 10-12 seconds, delivered to the sciatic or common peroneal nerve by a laboratory nerve stimulator. Another mode of stimulation included repeated single stimuli delivered at 0.1 Hz or 1 Hz. […] The agents were dissolved in physiologic saline and injected intravenously at appropriate time intervals. The intensity, onset, and duration of neuromuscular block and its type were determined with each agent. Through administering several doses, the doses corresponding to 50%, 80% and 90% neuromuscular block were determined. All agents were compared with selected standard neuromuscular blocking compounds, e.g. succinylcholine, pancuronium, mivacurium, or rocuronium.
Onset=time in minutes to 80-85% neuromuscular block.
RI=recovery index, minutes, spontaneous recovery, 25-75% neuromuscular response.
VB=vagal block, %, at 80-85% neuromuscular blocking dose.
ΔHR=change in heart rate, %, at 80-85% neuromuscular blocking dose.
ΔBP=change in arterial blood pressure, %, at 80-85% neuromuscular blocking dose.

The subject of the next data set is rabbits. Kind of data set: In vivo neuromuscular block and cardiovascular side effects, rabbit (Example 8, Table 7). The settings on record: for ED50: intravenous dose causing 50% neuromuscular block; for RI (recovery index): spontaneous recovery, 25-75% neuromuscular response; for Onset: time to 80-85% neuromuscular block.
For data set [2], the system named is anesthetized juvenile pigs. Kind of data set: animal or person. The format is in vivo. The settings on record: pig; for ED50: Sus scrofa, intravenous dose causing 50% neuromuscular block, read-out: ED50; for VB (vagal block) / ΔBP (change in arterial blood pressure) / ΔH (change in heart rate): at 80-85% neuromuscular blocking dose; for RI (recovery index): spontaneous recovery, 25-75% neuromuscular response; for Onset: time to 80-85% neuromuscular block. From the text: Both electromyographic and mechanomyographic responses can be quantified.
The techniques described under a) and b) were employed in other species as needed with the modification that juvenile pigs were initially anesthetized with inhalation of halothane (Table 5) and monkeys were initially sedated with intramuscular ketamine injections prior to inducing and maintaining general anesthesia using pentobarbital and propofol administered intravenously (Table 6).

[3] abbreviates: rat, at 80-85% neuromuscular blocking dose.
The mark [4] stands for this setting: Oryctolagus cuniculus, read-out: ED50.
The mark [5] stands for this setting: at 80-85% neuromuscular blocking dose.
The mark [6] stands for this setting: rat, intravenous dose causing 50% neuromuscular block.

Read-outs that look alike come from different tables or passages of the source.

Regarding `C[N+]1(Cc2ccccc2)[C@@H]2CC[C@H]1C[C@@H](OC(=O)CCCC(=O)O[C@H]1C[C@H]3CC[C@@H](C1)[N+]3(C)Cc1ccccc1)C2.[Br-].[Br-]` (stereo partly drawn) [bis[N-benzyltropanium-3α-yl]glutarate dibromide, reference compound], the ED50 in data set [1] (Rattus norvegicus, iv) came out at 5.5 mg/kg. Besides, in data set [1] (setting [3]), the “VB (vagal block)” value is recorded as 100%, the “ΔBP (change in arterial blood pressure)” value is recorded as −10% and the “ΔH (change in heart rate)” value is listed as 0%. In data set [1] (rat), the “RI (recovery index)” value was 3.7 min and the Onset came out at 2.5 min.
Take `CCC(=O)Oc1ccc(C[N+]2(C)[C@@H]3CC[C@H]2C[C@@H](OC(=O)CCCC(=O)O[C@H]2C[C@H]4CC[C@@H](C2)[N+]4(C)Cc2ccc(OC(=O)CC)c(OC(=O)CC)c2)C3)cc1OC(=O)CC.[Br-].[Br-]` (stereo partly drawn) [bis[N-(3,4-dipropionyloxybenzyl)tropanium-3α-yl]glutarate dibromide]: the ED50 is 0.065 mg/kg in the data set with rabbits (setting [4]); 0.45 mg/kg in data set [2]; 0.3 mg/kg in data set [1] (Rattus norvegicus, iv). The “ΔBP (change in arterial blood pressure)” value (in the data set on rabbits (setting [5]); in data set [2]; in data set [1] (setting [3])) was 0% each time. Besides, the “ΔH (change in heart rate)” value (in the data set on rabbits (setting [5]); in data set [2]; in data set [1] (setting [3])) was 0% in each case. Also, the “RI (recovery index)” value in the data set on rabbits worked out at 0.8 min; in data set [2], 0.6 min; in data set [1] (rat) it was 0.5 min. In addition, the Onset in the data set with rabbits was found to be 1 min; in data set [2], 1.1 min; in data set [1] (rat) it was 0.7 min. Besides, the “VB (vagal block)” value in data set [2] was found to be 70%; in data set [1] (setting [3]), 0%.
As for `COc1cc(C[N+]23CCC(CC2)C(OC(=O)[C@@H]2[C@@H](C(=O)OC4C[N+]5(Cc6ccc(OC(C)=O)c(OC)c6)CCC4CC5)[C@H]4C=C[C@@H]2C4)C3)ccc1OC(C)=O.[Br-].[Br-]` (relative stereo) [bis[N-(4-acetoxy-3-methoxybenzyl)quinuclidinium-3-yl]trans-3,6-endomethylene-1,2,3,6-tetrahydrophthalate dibromide], in the data set on rabbits (in vivo), the “ΔBP (change in arterial blood pressure)” value is on record as 0% and the “ΔH (change in heart rate)” value was 0%. In the data set with rabbits, the ED50 was found to be 0.115 mg/kg, the “RI (recovery index)” value came to 4.5 min and the Onset came out at 2.8 min. For the same compound, in data set [1] (rat, in vivo), the “VB (vagal block)” value is 70%, the “ΔBP (change in arterial blood pressure)” value is −10% and the “ΔH (change in heart rate)” value is on record as −5%. Also, in data set [1] (setting [6]), the 50% effective dose (ED50) is 2 mg/kg. In data set [1] (rat), the “RI (recovery index)” value stood at 3 min and the Onset was 1.8 min.
`COc1cc(C[N+]2(C)[C@@H]3CC[C@H]2C[C@@H](OC(=O)C2CCC2C(=O)O[C@H]2C[C@H]4CC[C@@H](C2)[N+]4(C)Cc2cc(OC)c(OC(C)=O)c(OC)c2)C3)cc(OC)c1OC(C)=O.[Br-].[Br-]` (stereo partly drawn) [bis[N-(4-acetoxy-3,5-dimethoxybenzyl)tropanium-3α-yl]cyclobutane-1,2-dicarboxylate dibromide]: the median effective dose (ED50) with rabbits (setting [4]) was 0.298 mg/kg. Moreover, in the data set on rabbits (setting [5]), the “ΔBP (change in arterial blood pressure)” value is 0% and the “ΔH (change in heart rate)” value is 0%. For the same compound, in the data set on rabbits, the “RI (recovery index)” value was 0.55 min and the Onset was found to be 0.5 min. In addition, the 50% effect level in data set [1] (Rattus norvegicus, iv) (ED50) was put at a dose of 0.367 mg/kg. In data set [1] (setting [3]), the “VB (vagal block)” value is listed as 20%, the “ΔBP (change in arterial blood pressure)” value is 0% and the “ΔH (change in heart rate)” value came to 0%. Besides, in data set [1] (rat), the “RI (recovery index)” value was found to be 0.45 min and the Onset was found to be 0.4 min.
Regarding `C[N+]1(Cc2ccccc2)[C@@H]2CC[C@H]1C[C@@H](OC(=O)CCCCCCCCC(=O)O[C@H]1C[C@H]3CC[C@@H](C1)[N+]3(C)Cc1ccccc1)C2.[Br-].[Br-]` (stereo partly drawn) [bis[N-benzyltropanium-3α-yl]sebacate dibromide, reference compound], in the data set with rabbits (setting [4]), the median effective dose (ED50) stood at 0.075 mg/kg. Also, in the data set on rabbits (setting [5]), the “ΔBP (change in arterial blood pressure)” value stood at 0% and the “ΔH (change in heart rate)” value is reported as 0%. Also, in the data set on rabbits, the “RI (recovery index)” value was determined as 6 min and the Onset came out at 2.3 min.
In the case of `CC[N+]1(C)[C@@H]2CC[C@H]1C[C@@H](OC(=O)CCCCC(=O)O[C@H]1C[C@H]3CC[C@@H](C1)[N+]3(C)CC)C2.[I-].[I-]` (stereo partly drawn) [bis[N-ethyltropanium-3α-yl]adipate diiodide, reference compound], in the data set with rabbits (setting [4]), the median effective dose (ED50) is 0.15 mg/kg. Besides, in the data set on rabbits (setting [5]), the “ΔBP (change in arterial blood pressure)” value is 0% and the “ΔH (change in heart rate)” value was 0%. Further, in the data set with rabbits, the “RI (recovery index)” value stood at 9 min and the Onset turned out to be 2.2 min.
For `CCCCC[N+]1(C)[C@@H]2CC[C@H]1C[C@@H](OC(=O)CCCCCCCCC(=O)O[C@H]1C[C@H]3CC[C@@H](C1)[N+]3(C)CCCCC)C2.[Br-].[Br-]` (stereo partly drawn) [bis[N-(pentyl)tropanium-3α-yl]sebacate dibromide, reference compound], in data set [2], the median effective dose (ED50) worked out at 0.3 mg/kg, the “VB (vagal block)” value worked out at 50%, the “ΔBP (change in arterial blood pressure)” value was 0% and the “ΔH (change in heart rate)” value is on record as 0%. Moreover, in data set [2], the “RI (recovery index)” value came to 6.9 min and the Onset amounted to 2.00 min.
`C[N+]1(CC=Cc2ccccc2)[C@@H]2CC[C@H]1C[C@@H](OC(=O)CCCCCCCCCCC(=O)O[C@H]1C[C@H]3CC[C@@H](C1)[N+]3(C)CC=Cc1ccccc1)C2.[Br-].[Br-]` (stereo partly drawn) [bis[N-(3-(phenyl)prop-2-enyl)tropanium-3α-yl]1,10-decanedicarboxylate dibromide, reference compound]: in data set [2], the ED50 is 0.17 mg/kg, the “VB (vagal block)” value is given as 27%, the “ΔBP (change in arterial blood pressure)” value is reported as −10% and the “ΔH (change in heart rate)” value came to 0%. In data set [2], the “RI (recovery index)” value turned out to be 6.4 min and the Onset came to 1.60 min.
In the case of `C[N+]1(C)[C@@H]2CC[C@H]1C[C@@H](OC(=O)CCCC(=O)O[C@H]1C[C@H]3CC[C@@H](C1)[N+]3(C)C)C2.[I-].[I-]` [bis[N-methyltropanium-3α-yl]glutarate diiodide, reference compound], the ED50 in data set [1] (Rattus norvegicus, iv) is 2 mg/kg. Moreover, in data set [1] (setting [3]), the “VB (vagal block)” value was 100%, the “ΔBP (change in arterial blood pressure)” value was 0% and the “ΔH (change in heart rate)” value turned out to be 0%. Further, in data set [1] (rat), the “RI (recovery index)” value was 4.2 min and the Onset was 1.2 min.
`C[N+]1(Cc2ccccc2Br)[C@@H]2CC[C@H]1C[C@@H](OC(=O)CCCC(=O)O[C@H]1C[C@H]3CC[C@@H](C1)[N+]3(C)Cc1ccccc1Br)C2.[Br-].[Br-]` (stereo partly drawn) [bis[N-(2-bromobenzyl)tropanium-3α-yl]glutarate dibromide, reference compound] returned a median effective dose (ED50) in data set [1] (Rattus norvegicus, iv) of 1.4 mg/kg. Also, in data set [1] (setting [3]), the “VB (vagal block)” value was determined as 100%, the “ΔBP (change in arterial blood pressure)” value was −9% and the “ΔH (change in heart rate)” value is 0%. Moreover, in data set [1] (rat), the “RI (recovery index)” value is 3.6 min and the Onset was 2.3 min.
With `COc1ccc(OC)c(C[N+]2(C)C3CCC2CC(OC(=O)C2C4C=CC(C4)C2C(=O)OC2CC4CCC(C2)[N+]4(C)Cc2cc(OC)ccc2OC)C3)c1.[Br-].[Br-]` (stereo not drawn) [bis[N-(2,5-dimethoxybenzyl)tropanium-3α-yl]trans-3,6-endomethylene-1,2,3,6-tetrahydrophthalate dibromide], in the data set with rabbits (in vivo), the “ΔBP (change in arterial blood pressure)” value turned out to be 0% and the “ΔH (change in heart rate)” value was 0%. Further, in the data set with rabbits, the median effective dose (ED50) amounted to 0.01 mg/kg, the “RI (recovery index)” value worked out at 9 min and the Onset came out at 4 min. In data set [1] (setting [3]), the “VB (vagal block)” value was 32%, the “ΔBP (change in arterial blood pressure)” value was determined as 0% and the “ΔH (change in heart rate)” value turned out to be 0%. Also, the ED50 in data set [1] (setting [6]) amounted to 0.057 mg/kg. Further, in data set [1] (rat), the “RI (recovery index)” value is 1.9 min and the Onset amounted to 1 min.

As a reminder, the ED50 is the dose at which the effect has come halfway, by size or by number of responders.

The values above are taken from patent US6376510B1, “Neuromuscular relaxants” (Newlaxant LLC, priority 1997, dated 2002).
